Reference: patent publication US12509431B2, “1,4-dihydroquinazolinone compounds and uses thereof” (Edgewise Therapeutics, Inc., priority 2022, dated 2025)

Experiments:
Assay type in all cases: biochemical
Conditions in all cases: Table 8
[1] = target: T1, Porcine Ventricle myofibrils (left ventricle of Yucatan minipigs) (Sus scrofa, UniProt P79293); test: Myofibril ATPase assay (PK/LDH NADH-coupled), ventricle myofibrils
T1 construct: Myofibrils from porcine cardiac muscle was isolated from the left ventricle of Yucatan minipigs; tissue Exemplar Genetics; host or cells: left ventricle of Yucatan minipigs
Summary of the method: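 Yucatan minipig left-ventricle myofibrils; ATPase measured by PK/LDH-coupled NADH loss at 340 nm, read every 1.5-2 min for 75 min. Slopes normalized to vehicle (100%) and fit to 4-parameter logistic model; EC25 and, for inhibitors, EC50 calculated.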

Porcine Atria myofibrils = test: Myofibril ATPase assay (PK/LDH NADH-coupled), atria myofibrils
Summary of the method: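 Porcine atrial myofibril ATPase followed via PK/LDH-coupled NADH depletion, absorbance at 340 nm read every 1.5-2 min over 75 min. Slopes (mAU/min) normalized to vehicle as 100% and fit to a 4-parameter logistic; EC25% derived, plus EC50% for inhibitors.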

[2] = system: Rabbit Skeletal myofibrils (rabbit psoas muscle); test: Myofibril ATPase assay (PK/LDH NADH-coupled), skeletal myofibrils
Summary of the method: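 Rabbit psoas myofibrils in pCa (PIPES/CaCl2/EGTA, pH 7.0) buffer; ADP coupled via PK/LDH to NADH loss, read at 340 nm every 1.5–2 min for 75 min. Slopes normalized to vehicle (100%) and fit to 4-parameter logistic for EC25, plus EC50 for inhibitors.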

T1 sequence (P79293 whole entry): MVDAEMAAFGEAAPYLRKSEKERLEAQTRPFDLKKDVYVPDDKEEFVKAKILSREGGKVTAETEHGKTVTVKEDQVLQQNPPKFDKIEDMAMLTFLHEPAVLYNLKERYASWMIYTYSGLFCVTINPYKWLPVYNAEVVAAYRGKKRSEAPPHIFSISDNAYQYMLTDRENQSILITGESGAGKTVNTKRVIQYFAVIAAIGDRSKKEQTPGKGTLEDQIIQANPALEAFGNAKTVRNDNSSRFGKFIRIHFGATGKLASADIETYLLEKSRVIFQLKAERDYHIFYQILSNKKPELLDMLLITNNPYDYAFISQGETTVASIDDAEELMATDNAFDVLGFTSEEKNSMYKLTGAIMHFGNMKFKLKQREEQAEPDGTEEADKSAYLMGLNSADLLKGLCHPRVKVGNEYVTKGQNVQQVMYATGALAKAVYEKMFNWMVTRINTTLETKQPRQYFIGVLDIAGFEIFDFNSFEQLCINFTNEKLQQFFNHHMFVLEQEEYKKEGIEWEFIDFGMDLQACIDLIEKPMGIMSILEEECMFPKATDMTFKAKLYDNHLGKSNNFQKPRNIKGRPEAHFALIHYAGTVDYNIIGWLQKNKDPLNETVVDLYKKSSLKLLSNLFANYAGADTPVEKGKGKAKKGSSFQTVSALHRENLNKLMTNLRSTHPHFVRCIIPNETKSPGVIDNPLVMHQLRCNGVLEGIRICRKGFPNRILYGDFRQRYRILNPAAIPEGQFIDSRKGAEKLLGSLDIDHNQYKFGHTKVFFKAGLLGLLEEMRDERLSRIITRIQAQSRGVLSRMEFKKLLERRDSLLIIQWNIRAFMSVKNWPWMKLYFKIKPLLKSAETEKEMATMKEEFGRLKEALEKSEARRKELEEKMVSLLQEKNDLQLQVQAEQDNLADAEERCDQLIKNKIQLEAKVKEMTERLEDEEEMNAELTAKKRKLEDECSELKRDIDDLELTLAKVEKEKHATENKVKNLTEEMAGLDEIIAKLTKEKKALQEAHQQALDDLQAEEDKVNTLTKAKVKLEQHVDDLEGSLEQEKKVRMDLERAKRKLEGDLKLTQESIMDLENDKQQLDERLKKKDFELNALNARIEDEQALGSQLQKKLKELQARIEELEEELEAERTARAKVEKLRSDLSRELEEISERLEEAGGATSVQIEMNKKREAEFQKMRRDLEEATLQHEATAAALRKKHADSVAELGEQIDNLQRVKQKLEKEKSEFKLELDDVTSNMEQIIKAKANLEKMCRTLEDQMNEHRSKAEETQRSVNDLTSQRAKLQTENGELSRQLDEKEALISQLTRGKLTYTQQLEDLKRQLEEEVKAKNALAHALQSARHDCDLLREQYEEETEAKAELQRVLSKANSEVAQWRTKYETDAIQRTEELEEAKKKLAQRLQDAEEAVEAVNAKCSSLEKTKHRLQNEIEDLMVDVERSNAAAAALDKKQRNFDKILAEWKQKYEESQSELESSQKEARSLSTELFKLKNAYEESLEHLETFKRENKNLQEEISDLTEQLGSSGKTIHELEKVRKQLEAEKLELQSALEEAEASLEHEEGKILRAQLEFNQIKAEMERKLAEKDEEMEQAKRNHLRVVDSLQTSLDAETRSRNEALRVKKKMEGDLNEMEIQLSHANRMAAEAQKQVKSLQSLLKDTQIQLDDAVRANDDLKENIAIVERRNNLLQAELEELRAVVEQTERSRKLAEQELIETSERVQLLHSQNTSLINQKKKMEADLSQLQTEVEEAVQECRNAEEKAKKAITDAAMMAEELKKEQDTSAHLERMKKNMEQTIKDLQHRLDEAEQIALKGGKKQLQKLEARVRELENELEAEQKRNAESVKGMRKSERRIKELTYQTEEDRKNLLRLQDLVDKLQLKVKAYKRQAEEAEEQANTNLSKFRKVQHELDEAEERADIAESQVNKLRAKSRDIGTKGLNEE

## C[C@H](NC(=O)CN1Cc2c(F)cccc2NC1=O)c1ccc(C#N)cc1F [Compound B114]
[1]
  Porcine Ventricle IC25: 167.3 nM
Porcine Atria myofibrils
  Porcine Atria IC25: 120 nM
[2]
  Rabbit Psoas IC25: 20.8 nM

## C[C@@H](NC(=O)CN1Cc2c(C#N)cccc2NC1=O)c1ccc(C#N)cn1 [Compound B115]
[1]
  Porcine Ventricle IC25: 100000 nM
Porcine Atria myofibrils
  Porcine Atria IC25: 100000 nM
[2]
  Rabbit Psoas IC25: 100000 nM

## C[C@H](NC(=O)CN1Cc2c(C#N)cccc2NC1=O)c1ccc(C#N)cn1 [Compound B116, 2-(5-Cyano-2-oxo-1,4-dihydroquinazolin-3-yl)-N-[(1S)-1-(5-cyanopyridin-2-yl)ethyl]acetamide]
[1]
  Porcine Ventricle IC25: 672.1 nM
Porcine Atria myofibrils
  Porcine Atria IC25: 220 nM
[2]
  Rabbit Psoas IC25: 74.3 nM

## N#Cc1cc(F)c2c(c1)OC[C@H]2NC(=O)CN1Cc2c(ccc(F)c2C#N)NC1=O [Compound B117]
[1]
  Porcine Ventricle IC25: 1967 nM
Porcine Atria myofibrils
  Porcine Atria IC25: 150 nM
[2]
  Rabbit Psoas IC25: 236.6 nM

## N#Cc1cc(F)c2c(c1)OC[C@@H]2NC(=O)CN1Cc2c(ccc(F)c2C#N)NC1=O [Compound B118]
[1]
  Porcine Ventricle IC25: 110 nM
Porcine Atria myofibrils
  Porcine Atria IC25: 70 nM
[2]
  Rabbit Psoas IC25: 13.6 nM

## N#Cc1ccc2c(c1)C1(CC1)N(CC(=O)N[C@@H]1COc3cc(F)cc(F)c31)C(=O)N2 [Compound B121]
[1]
  Porcine Ventricle IC25: 166.5 nM
Porcine Atria myofibrils
  Porcine Atria IC25: 120 nM
[2]
  Rabbit Psoas IC25: 67.7 nM

## N#Cc1ccc2c(c1)C1(CC1)N(CC(=O)N[C@H]1COc3cc(F)cc(F)c31)C(=O)N2 [Compound B122]
[1]
  Porcine Ventricle IC25: 100000 nM
Porcine Atria myofibrils
  Porcine Atria IC25: 1310 nM
[2]
  Rabbit Psoas IC25: 100000 nM

## N#Cc1cc(F)c2c(c1)OC[C@@H]2NC(=O)CN1Cc2c(ccc(F)c2F)NC1=O [Compound B124]
[1]
  Porcine Ventricle IC25: 1870 nM
Porcine Atria myofibrils
  Porcine Atria IC25: 360 nM
[2]
  Rabbit Psoas IC25: 326.2 nM

## C[C@@H](NC(=O)CN1Cc2c(C#N)cccc2NC1=O)c1ncc(C#N)cc1F [Compound B125]
[1]
  Porcine Ventricle IC25: 100000 nM
Porcine Atria myofibrils
  Porcine Atria IC25: 1620 nM
[2]
  Rabbit Psoas IC25: 1552 nM

## C[C@H](NC(=O)CN1Cc2c(C#N)cccc2NC1=O)c1ncc(C#N)cc1F [Compound B126]
[1]
  Porcine Ventricle IC25: 346.1 nM
Porcine Atria myofibrils
  Porcine Atria IC25: 70 nM
[2]
  Rabbit Psoas IC25: 40.06 nM

## C[C@@H](NC(=O)CN1Cc2c(ccc(C#N)c2F)NC1=O)c1ccc(C#N)cc1F [Compound B129]
[1]
  Porcine Ventricle IC25: 100000 nM
Porcine Atria myofibrils
  Porcine Atria IC25: 260 nM
[2]
  Rabbit Psoas IC25: 3992 nM

## C[C@@H](NC(=O)CN1Cc2c(ccc(F)c2C#N)NC1=O)c1ncc(C#N)cc1F [Compound B131]
[1]
  Porcine Ventricle IC25: 100000 nM
Porcine Atria myofibrils
  Porcine Atria IC25: 100000 nM
[2]
  Rabbit Psoas IC25: 345.6 nM

## C[C@H](NC(=O)CN1Cc2c(ccc(F)c2C#N)NC1=O)c1ncc(C#N)cc1F [Compound B132]
[1]
  Porcine Ventricle IC25: 171.5 nM
Porcine Atria myofibrils
  Porcine Atria IC25: 80 nM
[2]
  Rabbit Psoas IC25: 31.3 nM

## C[C@@H](NC(=O)CN1Cc2c(ccc(F)c2F)NC1=O)c1ccc(C#N)cn1 [Compound B135]
[1]
  Porcine Ventricle IC25: 15880 nM
Porcine Atria myofibrils
  Porcine Atria IC25: 510 nM
[2]
  Rabbit Psoas IC25: 1618 nM

## C[C@H](NC(=O)CN1Cc2c(ccc(F)c2F)NC1=O)c1ccc(C#N)cn1 [Compound B136]
[1]
  Porcine Ventricle IC25: 764 nM
Porcine Atria myofibrils
  Porcine Atria IC25: 420 nM
[2]
  Rabbit Psoas IC25: 64.5 nM

## C[C@@H](NC(=O)CN1C(=O)Nc2ccc(F)cc2C12CC2)c1ccc(C#N)cn1 [Compound B137]
[1]
  Porcine Ventricle IC25: 699.5 nM
Porcine Atria myofibrils
  Porcine Atria IC25: 120 nM
[2]
  Rabbit Psoas IC25: 115.5 nM

## C[C@H](NC(=O)CN1C(=O)Nc2ccc(F)cc2C12CC2)c1ccc(C#N)cn1 [Compound B138]
[1]
  Porcine Ventricle IC25: 100000 nM
Porcine Atria myofibrils
  Porcine Atria IC25: 1530 nM
[2]
  Rabbit Psoas IC25: 100000 nM

## N#Cc1c(F)ccc2c1CN(CC(=O)N[C@@H]1COc3cc(F)cc(F)c31)C(=O)N2 [Compound B139]
[1]
  Porcine Ventricle IC25: 121.5 nM
Porcine Atria myofibrils
  Porcine Atria IC25: 50 nM
[2]
  Rabbit Psoas IC25: 13.93 nM

## N#Cc1c(F)ccc2c1CN(CC(=O)N[C@H]1COc3cc(F)cc(F)c31)C(=O)N2 [Compound B140]
[1]
  Porcine Ventricle IC25: 55230 nM
Porcine Atria myofibrils
  Porcine Atria IC25: 1100 nM
[2]
  Rabbit Psoas IC25: 1501 nM

## C[C@@H](NC(=O)CN1Cc2cc(C#N)ccc2NC1=O)c1ncc(C#N)cc1F [Compound B143]
[1]
  Porcine Ventricle IC25: 100000 nM
Porcine Atria myofibrils
  Porcine Atria IC25: 100000 nM
[2]
  Rabbit Psoas IC25: 100000 nM

## C[C@H](NC(=O)CN1Cc2cc(C#N)ccc2NC1=O)c1ncc(C#N)cc1F [Compound B144, 2-(6-cyano-2-oxo-1,4-dihydroquinazolin-3-yl)-N-[(1S)-1-(5-cyano-3-fluoropyridin-2-yl)ethyl]acetamide]
[1]
  Porcine Ventricle IC25: 47420 nM
Porcine Atria myofibrils
  Porcine Atria IC25: 720 nM
[2]
  Rabbit Psoas IC25: 2787 nM

## O=C(CN1Cc2cc(F)ccc2NC1=O)N[C@H]1COc2cc(F)cc(F)c21 [Compound B146]
[1]
  Porcine Ventricle IC25: 68330 nM
Porcine Atria myofibrils
  Porcine Atria IC25: 1520 nM
[2]
  Rabbit Psoas IC25: 5163 nM

## O=C(CN1Cc2c(ccc(F)c2F)NC1=O)N[C@H]1COc2cc(F)cc(F)c21 [Compound B148]
[1]
  Porcine Ventricle IC25: 5833 nM
Porcine Atria myofibrils
  Porcine Atria IC25: 850 nM
[2]
  Rabbit Psoas IC25: 498.5 nM

## C[C@@H](NC(=O)CN1C(=O)Nc2ccc(C#N)cc2C12CC2)c1ncc(F)cc1F [Compound B149]
[1]
  Porcine Ventricle IC25: 100000 nM
Porcine Atria myofibrils
  Porcine Atria IC25: 73550 nM
[2]
  Rabbit Psoas IC25: 180.3 nM

## C[C@H](NC(=O)CN1C(=O)Nc2ccc(C#N)cc2C12CC2)c1ncc(F)cc1F [Compound B150]
[1]
  Porcine Ventricle IC25: 22650 nM
Porcine Atria myofibrils
  Porcine Atria IC25: 980 nM
[2]
  Rabbit Psoas IC25: 100000 nM

## C[C@@H](NC(=O)CN1Cc2c(C#N)cccc2NC1=O)c1ncc(F)cc1F [Compound B153]
[1]
  Porcine Ventricle IC25: 100000 nM
Porcine Atria myofibrils
  Porcine Atria IC25: 16330 nM
[2]
  Rabbit Psoas IC25: 516.1 nM

## C[C@H](NC(=O)CN1Cc2c(C#N)cccc2NC1=O)c1ncc(F)cc1F [Compound B154]
[1]
  Porcine Ventricle IC25: 2518 nM
Porcine Atria myofibrils
  Porcine Atria IC25: 180 nM
[2]
  Rabbit Psoas IC25: 31.5 nM

## C[C@H](NC(=O)CN1C(=O)Nc2ccccc2[C@H]1C)c1ccc(F)cc1F [Compound B155]
[1]
  Porcine Ventricle IC25: 3170 nM
Porcine Atria myofibrils
  Porcine Atria IC25: 430 nM
[2]
  Rabbit Psoas IC25: 85.1 nM

## C[C@H](NC(=O)CN1C(=O)Nc2ccccc2[C@H]1C)c1ccc(F)cc1F [Compound B156]
[1]
  Porcine Ventricle IC25: 10580 nM
Porcine Atria myofibrils
  Porcine Atria IC25: 4120 nM
[2]
  Rabbit Psoas IC25: 232 nM

## CC(NC(=O)CN1Cc2cc(C#N)ccc2NC1=O)c1ncc(C#N)cc1F (stereo not drawn) [Compound B157]
[1]
  Porcine Ventricle IC25: 100000 nM
Porcine Atria myofibrils
  Porcine Atria IC25: 5960 nM
[2]
  Rabbit Psoas IC25: 100000 nM

## C[C@@H]1c2ccccc2NC(=O)N1CC(=O)N[C@H](C)c1ncc(F)cc1F [Compound B158]
[1]
  Porcine Ventricle IC25: 100000 nM
Porcine Atria myofibrils
  Porcine Atria IC25: 100000 nM
[2]
  Rabbit Psoas IC25: 18110 nM

## C[C@@H](NC(=O)CN1C(=O)Nc2ccccc2[C@@H]1C)c1ncc(F)cc1F [Compound B159]
[1]
  Porcine Ventricle IC25: 100000 nM
Porcine Atria myofibrils
  Porcine Atria IC25: 100000 nM
[2]
  Rabbit Psoas IC25: 100000 nM

## C[C@H](NC(=O)CN1Cc2c(ccc(C#N)c2F)NC1=O)c1ccc(F)cc1F [Compound B160, 2-(6-Cyano-5-fluoro-2-oxo-1,4-dihydroquinazolin-3-yl)-N-[(1S)-1-(2,4-difluorophenyl)ethyl]acetamide]
[1]
  Porcine Ventricle IC25: 4311 nM
Porcine Atria myofibrils
  Porcine Atria IC25: 360 nM
[2]
  Rabbit Psoas IC25: 315.4 nM

## C[C@H](NC(=O)CN1C(=O)Nc2ccccc2[C@H]1C)c1ncc(F)cc1F [Compound B161]
[1]
  Porcine Ventricle IC25: 45800 nM
Porcine Atria myofibrils
  Porcine Atria IC25: 4150 nM
[2]
  Rabbit Psoas IC25: 1295 nM

## C[C@H](NC(=O)CN1C(=O)Nc2ccccc2[C@@H]1C)c1ncc(F)cc1F [Compound B162]
[1]
  Porcine Ventricle IC25: 100000 nM
Porcine Atria myofibrils
  Porcine Atria IC25: 52140 nM
[2]
  Rabbit Psoas IC25: 703.9 nM

## C[C@@H](NC(=O)CN1C(=O)Nc2ccc(F)cc2C12CC2)c1ncc(F)cc1F [Compound B163]
[1]
  Porcine Ventricle IC25: 31680 nM
Porcine Atria myofibrils
  Porcine Atria IC25: 2080 nM
[2]
  Rabbit Psoas IC25: 472.8 nM

## C[C@H](NC(=O)CN1C(=O)Nc2ccc(F)cc2C12CC2)c1ncc(F)cc1F [Compound B164]
[1]
  Porcine Ventricle IC25: 344.4 nM
Porcine Atria myofibrils
  Porcine Atria IC25: 100 nM
[2]
  Rabbit Psoas IC25: 27.3 nM

## C[C@@H]1c2ccccc2NC(=O)N1CC(=O)N[C@@H](CO)c1ncc(F)cc1F [Compound B165]
[1]
  Porcine Ventricle IC25: 100000 nM
Porcine Atria myofibrils
  Porcine Atria IC25: 17360 nM
[2]
  Rabbit Psoas IC25: 100000 nM

## C[C@H]1c2ccccc2NC(=O)N1CC(=O)N[C@@H](CO)c1ncc(F)cc1F [Compound B166]
[1]
  Porcine Ventricle IC25: 100000 nM
Porcine Atria myofibrils
  Porcine Atria IC25: 51600 nM
[2]
  Rabbit Psoas IC25: 6966 nM

## C[C@@H](C(=O)N[C@H](CO)c1ncc(F)cc1F)N1Cc2c(Cl)cccc2NC1=O [Compound B167]
[1]
  Porcine Ventricle IC25: 100000 nM
Porcine Atria myofibrils
  Porcine Atria IC25: 100000 nM
[2]
  Rabbit Psoas IC25: 100000 nM

## C[C@H](C(=O)N[C@H](CO)c1ncc(F)cc1F)N1Cc2c(Cl)cccc2NC1=O [Compound B168]
[1]
  Porcine Ventricle IC25: 100000 nM
Porcine Atria myofibrils
  Porcine Atria IC25: 100000 nM
[2]
  Rabbit Psoas IC25: 100000 nM

## C[C@@H](C(=O)N[C@@H](CO)c1ncc(F)cc1F)N1Cc2c(Cl)cccc2NC1=O [Compound B169]
[1]
  Porcine Ventricle IC25: 1354 nM
Porcine Atria myofibrils
  Porcine Atria IC25: 150 nM
[2]
  Rabbit Psoas IC25: 395.5 nM
